Test results: US5298488A, “CM-chitin derivatives and use thereof” (Fuji Photo Film Co., Ltd., priority 1990, dated 1994)
No end group written: not given here. succinylated CM‑chitin = succinylated carboxymethyl-chitin (CM-chitin), conjugated to the peptide; sulfated CM‑chitin = sulfated carboxymethyl-chitin (CM-chitin), conjugated to the peptide; sulfated succinylated CM‑chitin = sulfated succinylated CM-chitin; trimellityl CM‑chitin = trimellityl derivative of CM-chitin

How the values were obtained:
vitronectin = assay: Cell adhesion-inhibitory test against vitronectin (competitive assay, number of adhered cells); format: cell-based, human; settings: endothelium cells of blood vessel, 37° C., one hour, 0 control 249
Excerpt: (§1) A method for determining the activity of the CM-chitin derivatives of the present invention for inhibiting adhesion of cells to fibronectin or vitronectin will be described below. The competitive assays used herein have widely been employed tin the field of biochemistry and are detailed in, for instance, "Method in Enzymology", 1981, 82, pp. 803-831; and J. P. KOKAI Nos. Hei 1-309682 and Hei 2-174797.
(§2) Commercially available fibroneotin (derived from human; purchased from Seikaqaku Kogyo K. K.) and vitronectin (derived from human; purchased from Funakoshi Co., Ltd.) each was diluted to 1.0 μ1/ml and 2.0 μ1/ml with PBS (NaH2 PO4 0.005 M+NaCl 0.07 M), 0.5 ml of the resulting diluted solution was dispensed into a plastic plate having 24 wells and incubated at 37° C. overnight to perform coating of the plate. Then bovine serum albumin (BSA 1%) was added followed by incubation at 37° C. for one hour for inhibiting the occurrence of nonspecific adsorption, then washing with PBS in the usual manner and sufficient drainage to give an adsorption plate.
[…] Each of the solutions (0.25 ml) was dispensed to the plate prepared above, 0.25 ml of a suspension of endothelium cells of blood vessel (4×10^6 cells/ml) was added to the plate and incubated at 37° C. for one hour to thus cause cohesion of the cells. The plate was washed three times with DMEM medium to remove non-adhesive cells, then the adhered cells were peeled off with a 0.025% EDTA trypsin solution and stained with a 2% Trypan Blue solution to determine the number of the adhered cells.

[1] = system: human plasma rich in platelet; assay: Platelet coagulation-inhibitory activity in vitro, transmittance by aggregometer; format: cell-based; settings: 37° C., 3 minutes preincubation; for Platelet Coagulation-Inhibitory Action IC50, ADP Stimulation: ADP stimulation (50 μM ADP solution); for Platelet Coagulation-Inhibitory Action IC50, Collagen Stimulation: collagen stimulation (200 μg/ml collagen solution)
Method: The platelet coagulation-inhibitory effect of the CM-chitin derivative of the present invention was assayed, in vitro, using human plasma rich in platelet. The experimental method will be described below.
To fresh human blood, there was added 1/9 volume of a 3.8% sodium citrate solution, the resulting mixture was centrifuged (1000 rpm; for 10 minutes) and the upper layer was separated as a plasma rich in platelet. A lyophilized CM-chitin derivative was dissolved in physiological saline to give a plurality of solutions having various concentrations ranging from 0 to 1.5 mg/ml. Each of the solutions (25 μ1) was added to 200 µl of the plasma, incubated at 37° C. for 3 minutes, then a 50 μM of ADP (adenosine diphosphate) solution or a 200 μg/ml collagen solution was added to determine the extent of coagulation in terms of transmittance determined by an aggregometer.
Rate of Coagulation Inhibition=(1-T/T .)×100%
T . : transmittance observed when a salt of CM-chitin derivative was not added.
T : transmittance observed when a salt of CM-chitin derivative was added.

fibronectin = assay: Cell adhesion-inhibitory test against fibronectin (competitive assay, number of adhered cells); format: cell-based, human; settings: endothelium cells of blood vessel, 37° C., one hour, 0 mg/ml control 160
Excerpt: as §1, §2
A CM-chitin derivative obtained through lyophilization was diluted with Dulbecco's Modified Eagles Medium (hereunder referred to as "DMEM") to give solutions of the CM-chitin derivative having concentrations of 0, 0.25, 0.5, 1.0 and 1.5 mg/ml respectively. Each of the solutions (0.25 ml) was dispensed to the plate prepared above, 0.25 ml of a suspension of endothelium cells of blood vessel (4×10^6 cells/ml) was added to the plate and incubated at 37° C. for one hour to thus cause cohesion of the cells. The plate was washed three times with DMEM medium to remove non-adhesive cells, then the adhered cells were peeled off with a 0.025% EDTA trypsin solution and stained with a 2% Trypan Blue solution to determine the number of the adhered cells.

[2] = concentration 10 mg/ml (so in the source)
[3] = concentration 50 mg/ml (so in the source)
[4] = concentration 100 mg/ml (so in the source)
[5] = concentration 300 mg/ml (so in the source)

Substance | Cell Adhesion-Inhibitory effect Against Vitronectin (number of adhered cells) (vitronectin; [2]) | Cell Adhesion-Inhibitory effect Against Vitronectin (number of adhered cells) (vitronectin; [3]) | Cell Adhesion-Inhibitory effect Against Vitronectin (number of adhered cells) (vitronectin; [4]) | Cell Adhesion-Inhibitory effect Against Vitronectin (number of adhered cells) (vitronectin; [5]) | Platelet Coagulation-Inhibitory Action IC50, ADP Stimulation [1] | Platelet Coagulation-Inhibitory Action IC50, Collagen Stimulation [1] | Cell Adhesion-Inhibitory effect Against Fibronectin (number of adhered cells) (fibronectin; concentration 0.5 mg/ml) | Cell Adhesion-Inhibitory effect Against Fibronectin (number of adhered cells) (fibronectin; concentration 1.0 mg/ml) | Cell Adhesion-Inhibitory effect Against Fibronectin (number of adhered cells) (fibronectin; concentration 1.5 mg/ml) | Cell Adhesion-Inhibitory effect Against Fibronectin (number of adhered cells) (fibronectin; concentration .25 mg/ml)
Succinylated CM-Chitin-Arg-Gly-Asp-Ser ({succinylated CM‑chitin}-RGDS) [CM--chitin derivative-2] | 137 cell/well | 96 cell/well | 78 cell/well | 59 cell/well | 18 µg/mL | 10 µg/mL | 99 cell/well | 82 cell/well | 75 cell/well | 135 cell/well
Sulfated CM-Chitin-Arg-Gly-Asp-Ser ({sulfated CM‑chitin}-RGDS) [CM--chitin derivative-13] | 103 cell/well | 70 cell/well | 47 cell/well | 31 cell/well | 17 µg/mL | 7 µg/mL | 77 cell/well | 57 cell/well | 33 cell/well | 97 cell/well
Sulfated CM-Chitin-Gly-Arg-Gly-Asp-Ser ({sulfated CM‑chitin}-GRGDS) [CM--chitin derivative-14] | 107 cell/well | 78 cell/well | 43 cell/well | 34 cell/well | 12 µg/mL | 3 µg/mL | 93 cell/well | 68 cell/well | 41 cell/well | 111 cell/well
Sulfated Succinylated CM-Chitin-Arg-Gly-Asp-Ser ({sulfated succinylated CM‑chitin}-RGDS) [CM--chitin derivative-15] | 115 cell/well | 69 cell/well | 54 cell/well | 38 cell/well | 15 µg/mL | 6 µg/mL | 89 cell/well | 65 cell/well | 37 cell/well | 105 cell/well
Sulfated Succinylated CM-Chitin-Gly-Arg-Gly-Asp-Ser ({sulfated succinylated CM‑chitin}-GRGDS) [CM--chitin derivative-16] | 122 cell/well | 81 cell/well | 63 cell/well | 40 cell/well | 12 µg/mL | 2 µg/mL | 81 cell/well | 75 cell/well | 50 cell/well | 103 cell/well
Trimellityl Derivative of CM-Chitin Arg-Gly-Asp-Ser ({trimellityl CM‑chitin}-RGDS) [CM--chitin derivative-6] | 133 cell/well | 98 cell/well | 71 cell/well | 56 cell/well | 26 µg/mL | 11 µg/mL | 107 cell/well | 93 cell/well | 66 cell/well | 127 cell/well
